In PubChem BioAssay AID192 (DTP/NCI, 2004):
Several values for one entry are separate records, joined by “and”; a condition that tells them apart may be missing. Equal values may be shown once. Toxic doses and inconclusive results are not listed.

System: BDF1 mice, B16 melanoma ip, median survival T/C
Test: NCI In Vivo Anticancer Drug Screen. Data for tumor model B16 Melanoma (intraperitoneal) in B6D2F1 (BDF1) mice
Details: endpoint: median survival time, higher = longer survival
In short: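 Each result divides a survival or tumor-size measurement in the compound-treated group by the same measurement in the vehicle group.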

[1] = dose: 12.5 mg/kg/injection, schedule: Q01DX009 (ip), vehicle: saline
[2] = dose: 25.0 mg/kg/injection, schedule: Q01DX009 (ip), vehicle: saline
[3] = dose: 50.0 mg/kg/injection, schedule: Q01DX009 (ip), vehicle: saline
[4] = dose: 100.0 mg/kg/injection, schedule: Q01DX009 (ip), vehicle: saline
[5] = dose: 200.0 mg/kg/injection, schedule: Q01DX009 (ip), vehicle: saline with Tween-80
[6] = dose: 100.0 mg/kg/injection, schedule: Q01DX009 (ip), vehicle: Klucel (hydroxypropylcellulose) (HPC)
[7] = dose: 200.0 mg/kg/injection, schedule: Q01DX009 (ip), vehicle: Klucel (hydroxypropylcellulose) (HPC)
[8] = dose: 400.0 mg/kg/injection, schedule: Q01DX009 (ip), vehicle: Klucel (hydroxypropylcellulose) (HPC)
[9] = dose: 100.0 mg/kg/injection, schedule: Q01DX009 (ip), vehicle: saline with Tween-80

Q: Which T/C [1] does the source give for `C=C1C/C(=C/C)C(=O)O[C@@H]2CCN3CC=C(COC(=O)[C@]1(C)O)[C@H]23` here?
A: The T/C was 109 % of control.

Q: What about the T/C [2] of the same molecule?
A: The T/C was 116 % of control.

Q: And the T/C [3]?
A: The T/C was 116 % of control.

Q: What about the T/C [4] of the same molecule?
A: The T/C was 107 % of control.

Q: With `CCCCCCCCCCCCCCCCCCCCCC(=O)Nc1ccn(C2OC(CO)C(O)C2O)c(=O)n1` (centres undefined) as the molecule, how does the T/C (dose: 6.25 mg/kg/injection, schedule: Q01DX009 (ip), vehicle: saline with Tween-80) read?
A: Its T/C is 102 % of control.

Q: What about the T/C (dose: 12.5 mg/kg/injection, schedule: Q01DX009 (ip), vehicle: saline with Tween-80) of the same molecule?
A: Its T/C is 102 % of control.

Q: And the T/C (dose: 25.0 mg/kg/injection, schedule: Q01DX009 (ip), vehicle: saline with Tween-80)?
A: The T/C was 119 % of control.

Q: And the T/C [5]?
A: Its T/C is 163 % of control.

Q: Which results are given for `CCOC(=O)N(Cc1ccccc1)C1CC1`?
A: T/C (dose: 0.78 mg/kg/injection, schedule: Q04DX003 (ip), vehicle: saline): 101 % of control; T/C (dose: 1.56 mg/kg/injection, schedule: Q04DX003 (ip), vehicle: saline): 93 % of control; T/C (dose: 3.12 mg/kg/injection, schedule: Q04DX003 (ip), vehicle: saline): 97 % of control; T/C (dose: 6.25 mg/kg/injection, schedule: Q04DX003 (ip), vehicle: saline): 101 % of control; T/C (dose: 12.5 mg/kg/injection, schedule: Q04DX003 (ip), vehicle: saline): 105 % of control; T/C [2]: 105 % of control; T/C [3]: 100 % of control; T/C [4]: 94 % of control; T/C (dose: 200.0 mg/kg/injection, schedule: Q01DX009 (ip), vehicle: saline): 102 % of control; T/C (dose: 400.0 mg/kg/injection, schedule: Q01DX009 (ip), vehicle: saline): 107 % of control

Q: `CC(=O)OCc1c(O)c2c(c(O)c1COC(C)=O)C(=O)C=CC2=O` was tested. Which T/C (dose: 6.25 mg/kg/injection, schedule: Q01DX009 (ip), vehicle: Klucel (hydroxypropylcellulose) (HPC)) did it give?
A: Its T/C is 94 % of control.

Q: What about the T/C (dose: 12.5 mg/kg/injection, schedule: Q01DX009 (ip), vehicle: Klucel (hydroxypropylcellulose) (HPC)) of the same molecule?
A: Its T/C is 91 % of control.

Q: And the T/C (dose: 25.0 mg/kg/injection, schedule: Q01DX009 (ip), vehicle: Klucel (hydroxypropylcellulose) (HPC))?
A: Its T/C is 89 % of control.

Q: `Cc1ccc(NC(=O)COc2cc(Cl)c(Cl)cc2Cl)c([N+](=O)[O-])c1` was tested. Which T/C [6] did it give?
A: Its T/C is 93 % of control.

Q: What about the T/C [7] of the same molecule?
A: The T/C was 100 % of control.

Q: What does the source list for `COc1ccc(N=Cc2ccc(C=Nc3ccc(OC)cc3)cc2)cc1`?
A: T/C (dose: 50.0 mg/kg/injection, schedule: Q01DX009 (ip), vehicle: Klucel (hydroxypropylcellulose) (HPC)): 92 % of control and 94 % of control; T/C [6]: 96 % of control; T/C [7]: 88 % of control and 93 % of control

Q: How did the T/C [6] turn out when `CCOc1ccccc1NC(=O)Nc1ccc(Cl)cc1` was run?
A: The T/C was 110 % of control.

Q: What about the T/C [7] of the same molecule?
A: The T/C was 103 % of control.

Q: And the T/C [8]?
A: The T/C was 100 % of control.

Q: `COc1ccc2nc3ccccc3c(NCCNCCO)c2c1` was tested. Which T/C (dose: 10.0 mg/kg/injection, schedule: Q01DX009 (ip), vehicle: saline) did it give?
A: Its T/C is 123 % of control.

Q: Which results are given for `Cc1ccc2c(c1)P(=O)(O)c1cc(Cl)ccc1O2`?
A: T/C (dose: 86.4 mg/kg/injection, schedule: Q01DX009 (ip), vehicle: water): 100 % of control; T/C (dose: 144.0 mg/kg/injection, schedule: Q01DX009 (ip), vehicle: water): 94 % of control; T/C (dose: 240.0 mg/kg/injection, schedule: Q01DX009 (ip), vehicle: water): 101 % of control; T/C (dose: 259.0 mg/kg/injection, schedule: Q04DX003 (ip), vehicle: water): 123 % of control; T/C (dose: 400.0 mg/kg/injection, schedule: Q01DX009 (ip), vehicle: water): 98 % of control; T/C (dose: 432.0 mg/kg/injection, schedule: Q04DX003 (ip), vehicle: water): 88 % of control

Q: How did the T/C [6] turn out when `CC(=O)c1cccc(NC(=O)Nc2ccccc2)c1` was run?
A: The T/C was 96 % of control.

Q: What about the T/C [7] of the same molecule?
A: The T/C was 91 % of control.

Q: What about the T/C [8] of the same molecule?
A: Its T/C is 96 % of control.

Q: What does the source list for `CCCCCCCC(N)=O`?
A: T/C [9]: 100 % of control; T/C [5]: 106 % of control

Q: What does the source list for `CC[C@]1(O)C[C@H]2CN(CCc3c([nH]c4ccccc34)[C@@](C(=O)OC)(c3cc4c(cc3OC)N(C)[C@H]3[C@@](O)(C(=O)OC)[C@H](OC(C)=O)[C@]5(CC)C=CCN6CC[C@]43[C@@H]65)C2)C1`?
A: T/C (dose: 0.03 mg/kg/injection, schedule: Q01DX009 (ip), vehicle: saline): 152 % of control; T/C (dose: 0.05 mg/kg/injection, schedule: Q01DX009 (ip), vehicle: saline): 161 % of control; T/C (dose: 0.06 mg/kg/injection, schedule: Q01DX009 (ip), vehicle: water): 165 % of control; T/C (dose: 0.1 mg/kg/injection, schedule: Q01DX009 (ip), vehicle: saline): 152 % of control and 155 % of control; T/C (dose: 0.12 mg/kg/injection, schedule: Q01DX009 (ip), vehicle: water): 110 % of control; T/C (dose: 0.2 mg/kg/injection, schedule: Q01DX009 (ip), vehicle: saline): 186 % of control and 189 % of control; T/C (dose: 0.22 mg/kg/injection, schedule: Q01DX009 (ip), vehicle: saline): 196 % of control; T/C (dose: 0.22 mg/kg/injection, schedule: Q01DX009 (ip), vehicle: water): 197 % of control; T/C (dose: 0.25 mg/kg/injection, schedule: Q01DX009 (ip), vehicle: water): 163 % of control and 216 % of control; T/C (dose: 0.36 mg/kg/injection, schedule: Q01DX009 (ip), vehicle: saline): 240 % of control; T/C (dose: 0.36 mg/kg/injection, schedule: Q01DX009 (ip), vehicle: water): 181 % of control; T/C (dose: 0.39 mg/kg/injection, schedule: Q04DX003 (ip), vehicle: saline): 162 % of control; T/C (dose: 0.4 mg/kg/injection, schedule: Q01DX009 (ip), vehicle: saline): 219 % of control; T/C (dose: 0.5 mg/kg/injection, schedule: Q04DX003 (ip), vehicle: saline): 154 % of control; T/C (dose: 0.6 mg/kg/injection, schedule: Q01DX009 (ip), vehicle: saline): 250 % of control; T/C (dose: 0.63 mg/kg/injection, schedule: Q04DX003 (ip), vehicle: saline): 151 % of control; T/C (dose: 0.65 mg/kg/injection, schedule: Q04DX003 (ip), vehicle: saline): 164 % of control; T/C (dose: 0.8 mg/kg/injection, schedule: Q01DX009 (ip), vehicle: saline): 260 % of control and 299 % of control; T/C (dose: 0.8 mg/kg/injection, schedule: Q04DX003 (ip), vehicle: water): 161 % of control; T/C (dose: 1.0 mg/kg/injection, schedule: Q04DX003 (ip), vehicle: saline): 170 % of control; T/C (dose: 1.08 mg/kg/injection, schedule: Q04DX003 (ip), vehicle: saline): 201 % of control; T/C (dose: 1.44 mg/kg/injection, schedule: Q04DX003 (ip), vehicle: water): 190 % of control; T/C (dose: 1.8 mg/kg/injection, schedule: Q04DX003 (ip), vehicle: saline): 206 % of control; T/C (dose: 2.0 mg/kg/injection, schedule: Q04DX003 (ip), vehicle: saline): 212 % of control; T/C (dose: 2.4 mg/kg/injection, schedule: Q04DX003 (ip), vehicle: water): 221 % of control; T/C (dose: 2.5 mg/kg/injection, schedule: Q04DX003 (ip), vehicle: saline): 189 % of control; T/C (dose: 3.2 mg/kg/injection, schedule: Q04DX003 (ip), vehicle: water): 224 % of control; T/C (dose: 4.0 mg/kg/injection, schedule: Q04DX003 (ip), vehicle: saline): 254 % of control; T/C (dose: 4.8 mg/kg/injection, schedule: Q01DX001 (ip), vehicle: water): 158 % of control; T/C (dose: 216.0 micrograms/kg/injection, schedule: Q01DX009 (ip), vehicle: saline): 197 % of control; T/C (dose: 360.0 micrograms/kg/injection, schedule: Q01DX009 (ip), vehicle: water): 155 % of control; T/C (dose: 389.0 micrograms/kg/injection, schedule: Q04DX003 (ip), vehicle: saline): 158 % of control and 163 % of control; T/C (dose: 600.0 micrograms/kg/injection, schedule: Q01DX009 (ip), vehicle: saline): 216 % of control; T/C (dose: 648.0 micrograms/kg/injection, schedule: Q04DX003 (ip), vehicle: saline): 152 % of control and 171 % of control and 197 % of control; T/C (dose: 1080.0 micrograms/kg/injection, schedule: Q04DX003 (ip), vehicle: saline): 198 % of control; T/C (dose: 1800.0 micrograms/kg/injection, schedule: Q04DX003 (ip), vehicle: saline): 203 % of control and 230 % of control; T/C (dose: 3000.0 micrograms/kg/injection, schedule: Q04DX003 (ip), vehicle: saline): 213 % of control and 267 % of control

Q: With `CCCCNC(=O)Nc1ccc(C(=O)OCCCC)cc1` as the molecule, how does the T/C (dose: 50.0 mg/kg/injection, schedule: Q01DX009 (ip), vehicle: saline with Tween-80) read?
A: The T/C was 96 % of control.

Q: What about the T/C [9] of the same molecule?
A: The T/C was 95 % of control.

Q: And the T/C [5]?
A: Its T/C is 93 % of control.

Q: What does the source list for `COc1ccc(NC(=O)Nc2ccc(C)c(Cl)c2)cc1`?
A: T/C (dose: 100.0 mg/kg/injection, schedule: Q01DX009 (sc), vehicle: olive oil, sesame oil, peanut oil): 109 % of control; T/C (dose: 200.0 mg/kg/injection, schedule: Q01DX009 (sc), vehicle: olive oil, sesame oil, peanut oil): 100 % of control; T/C (dose: 400.0 mg/kg/injection, schedule: Q01DX009 (sc), vehicle: olive oil, sesame oil, peanut oil): 98 % of control

Q: Which results are given for `Cc1cn(C2CC(F)C(CO)O2)c(=O)[nH]c1=O` (centres undefined)?
A: T/C (dose: 6.25 mg/kg/injection, schedule: Q01DX009 (ip), vehicle: saline): 108 % of control; T/C [1]: 103 % of control; T/C [2]: 110 % of control; T/C [3]: 115 % of control; T/C [4]: 97 % of control
